Source: patent publication US20170050957A1, “4-AMINO-6-(HETEROCYCLIC)PICOLINATES AND 6-AMINO-2-(HETEROCYCLIC)PYRIMIDINE-4-CARBOXYLATES AND THEIR USE AS HERBICIDES” (Dow AgroSciences LLC, priority 2013, published 2017)

System: Wheat and Barley and test plant species
Assay: Post-emergent Test III, herbicidal activity in wheat and barley (Table 17; visual injury, GR20/GR50/GR80/GR90)
Assay type: in vivo
Conditions: 21 d; for Visual Growth Reduction (%) 21 Days After Application, CIRAR / Visual Growth Reduction (%) 21 Days After Application, GALAP / Visual Growth Reduction (%) 21 Days After Application, HORVS / Visual Growth Reduction (%) 21 Days After Application, KCHSC / Visual Growth Reduction (%) 21 Days After Application, LAMPU / Visual Growth Reduction (%) 21 Days After Application, MATCH / Visual Growth Reduction (%) 21 Days After Application, PAPRH / Visual Growth Reduction (%) 21 Days After Application, SASKR / Visual Growth Reduction (%) 21 Days After Application, SINAR / Visual Growth Reduction (%) 21 Days After Application, TRZAS / Visual Growth Reduction (%) 21 Days After Application, VERPE / Visual Growth Reduction (%) 21 Days After Application, VIOTR: post-emergent
In short: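 Greenhouse-grown plants at second to third true leaf stage (about 18/17° C day/night, 14 h photoperiod) sprayed post-emergence with compound in acetone/DMSO/water-based mix with Agri-Dex crop oil and X-77 surfactant at 187 L/ha, at highest rate and 1/2× to 1/16× dilutions. Visual injury scored 0–100% versus untreated plants after 21 d; GR20/GR50/GR80/GR90 from probit analysis.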

## COC(=O)c1nc(-c2ccc3cc[nH]c3c2F)cc(N)c1Cl [Compound 1.23, Methyl 4-amino-3-chloro-6-(7-fluoro-1H-indol-6-yl)picolinate]
CIRAR, 17.5 g ai/ha
  Visual Growth Reduction (%) 21 Days After Application, CIRAR: G (0-29)
CIRAR, 35 g ai/ha
  Visual Growth Reduction (%) 21 Days After Application, CIRAR: G (0-29)
CIRAR, 70 g ai/ha
  Visual Growth Reduction (%) 21 Days After Application, CIRAR: G (0-29)
CIRAR, dose for 50 percent growth reduction, probit analysis
  GR50, CIRAR: >140 g ai/ha
CIRAR, dose for 80 percent growth reduction, probit analysis
  GR80, CIRAR: >140 g ai/ha
CIRAR, dose for 90 percent growth reduction, probit analysis
  GR90, CIRAR: >140 g ai/ha
GALAP, 17.5 g ai/ha
  Visual Growth Reduction (%) 21 Days After Application, GALAP: A (95-100)
GALAP, 35 g ai/ha
  Visual Growth Reduction (%) 21 Days After Application, GALAP: A (95-100)
GALAP, 70 g ai/ha
  Visual Growth Reduction (%) 21 Days After Application, GALAP: A (95-100)
GALAP, dose for 50 percent growth reduction, probit analysis
  GR50, GALAP: 1 g ai/ha
GALAP, dose for 80 percent growth reduction, probit analysis
  GR80, GALAP: 4 g ai/ha
GALAP, dose for 90 percent growth reduction, probit analysis
  GR90, GALAP: 7 g ai/ha
HORVS, 17.5 g ai/ha
  Visual Growth Reduction (%) 21 Days After Application, HORVS: G (0-29)
HORVS, 35 g ai/ha
  Visual Growth Reduction (%) 21 Days After Application, HORVS: G (0-29)
HORVS, 70 g ai/ha
  Visual Growth Reduction (%) 21 Days After Application, HORVS: G (0-29)
HORVS, dose for 20 percent growth reduction, probit analysis
  GR20, HORVS: >140 g ai/ha
KCHSC, 17.5 g ai/ha
  Visual Growth Reduction (%) 21 Days After Application, KCHSC: F (30-44)
KCHSC, 35 g ai/ha
  Visual Growth Reduction (%) 21 Days After Application, KCHSC: E (45-59)
KCHSC, 70 g ai/ha
  Visual Growth Reduction (%) 21 Days After Application, KCHSC: D (60-74)
KCHSC, dose for 50 percent growth reduction, probit analysis
  GR50, KCHSC: 35 g ai/ha
KCHSC, dose for 80 percent growth reduction, probit analysis
  GR80, KCHSC: 110 g ai/ha
KCHSC, dose for 90 percent growth reduction, probit analysis
  GR90, KCHSC: >140 g ai/ha
LAMPU, 17.5 g ai/ha
  Visual Growth Reduction (%) 21 Days After Application, LAMPU: B (85-94)
LAMPU, 35 g ai/ha
  Visual Growth Reduction (%) 21 Days After Application, LAMPU: A (95-100)
LAMPU, 70 g ai/ha
  Visual Growth Reduction (%) 21 Days After Application, LAMPU: A (95-100)
LAMPU, dose for 50 percent growth reduction, probit analysis
  GR50, LAMPU: 3 g ai/ha
LAMPU, dose for 80 percent growth reduction, probit analysis
  GR80, LAMPU: 6 g ai/ha
LAMPU, dose for 90 percent growth reduction, probit analysis
  GR90, LAMPU: 9 g ai/ha
17.5 g ai/ha
  Visual Growth Reduction (%) 21 Days After Application, MATCH: G (0-29)
35 g ai/ha
  Visual Growth Reduction (%) 21 Days After Application, MATCH: G (0-29)
70 g ai/ha
  Visual Growth Reduction (%) 21 Days After Application, MATCH: G (0-29)
PAPRH, 17.5 g ai/ha
  Visual Growth Reduction (%) 21 Days After Application, PAPRH: D (60-74)
PAPRH, 35 g ai/ha
  Visual Growth Reduction (%) 21 Days After Application, PAPRH: A (95-100)
PAPRH, 70 g ai/ha
  Visual Growth Reduction (%) 21 Days After Application, PAPRH: A (95-100)
PAPRH, dose for 50 percent growth reduction, probit analysis
  GR50, PAPRH: 11 g ai/ha
PAPRH, dose for 80 percent growth reduction, probit analysis
  GR80, PAPRH: 17 g ai/ha
PAPRH, dose for 90 percent growth reduction, probit analysis
  GR90, PAPRH: 22 g ai/ha
SASKR, 17.5 g ai/ha
  Visual Growth Reduction (%) 21 Days After Application, SASKR: F (30-44)
SASKR, 35 g ai/ha
  Visual Growth Reduction (%) 21 Days After Application, SASKR: E (45-59)
SASKR, 70 g ai/ha
  Visual Growth Reduction (%) 21 Days After Application, SASKR: C (75-84)
SASKR, dose for 50 percent growth reduction, probit analysis
  GR50, SASKR: 29 g ai/ha
SASKR, dose for 80 percent growth reduction, probit analysis
  GR80, SASKR: 90 g ai/ha
SASKR, dose for 90 percent growth reduction, probit analysis
  GR90, SASKR: >140 g ai/ha
SINAR, 17.5 g ai/ha
  Visual Growth Reduction (%) 21 Days After Application, SINAR: C (75-84)
SINAR, 35 g ai/ha
  Visual Growth Reduction (%) 21 Days After Application, SINAR: C (75-84)
SINAR, 70 g ai/ha
  Visual Growth Reduction (%) 21 Days After Application, SINAR: A (95-100)
SINAR, dose for 50 percent growth reduction, probit analysis
  GR50, SINAR: 3 g ai/ha
SINAR, dose for 80 percent growth reduction, probit analysis
  GR80, SINAR: 14 g ai/ha
SINAR, dose for 90 percent growth reduction, probit analysis
  GR90, SINAR: 32 g ai/ha
TRZAS, 17.5 g ai/ha
  Visual Growth Reduction (%) 21 Days After Application, TRZAS: G (0-29)
TRZAS, 35 g ai/ha
  Visual Growth Reduction (%) 21 Days After Application, TRZAS: G (0-29)
TRZAS, 70 g ai/ha
  Visual Growth Reduction (%) 21 Days After Application, TRZAS: G (0-29)
TRZAS, dose for 20 percent growth reduction, probit analysis
  GR20, TRZAS: 66 g ai/ha
VERPE, 17.5 g ai/ha
  Visual Growth Reduction (%) 21 Days After Application, VERPE: B (85-94)
VERPE, 35 g ai/ha
  Visual Growth Reduction (%) 21 Days After Application, VERPE: B (85-94)
VERPE, 70 g ai/ha
  Visual Growth Reduction (%) 21 Days After Application, VERPE: A (95-100)
VERPE, dose for 50 percent growth reduction, probit analysis
  GR50, VERPE: 1 g ai/ha
VERPE, dose for 80 percent growth reduction, probit analysis
  GR80, VERPE: 8 g ai/ha
VERPE, dose for 90 percent growth reduction, probit analysis
  GR90, VERPE: 21 g ai/ha
VIOTR, 17.5 g ai/ha
  Visual Growth Reduction (%) 21 Days After Application, VIOTR: G (0-29)
VIOTR, 35 g ai/ha
  Visual Growth Reduction (%) 21 Days After Application, VIOTR: E (45-59)
VIOTR, 70 g ai/ha
  Visual Growth Reduction (%) 21 Days After Application, VIOTR: D (60-74)
VIOTR, dose for 50 percent growth reduction, probit analysis
  GR50, VIOTR: 44 g ai/ha
VIOTR, dose for 80 percent growth reduction, probit analysis
  GR80, VIOTR: 119 g ai/ha
VIOTR, dose for 90 percent growth reduction, probit analysis
  GR90, VIOTR: >140 g ai/ha
